Test results as given in the supplement of paper PMC6723410.

Tested on: GUMC-403
Assay: viability at highest tested concentration (max response) relative to DMSO (% of DMSO control); higher = less cytotoxic
Conditions: library / dose series: MIPE library, 11-point 1:3 dilution; top concentration 13.4 µM; 48 h
How it was run: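 Plates of 1536 wells were seeded with 700 patient-derived GUMC-403 papilloma cells per well, grown by conditional reprogramming, in 5 μL F + Y medium and kept overnight at 37 °C. Compounds followed at 23 nL by pin tool over an 11-point 1:3 series, for 48 h. After a CellTiter-Glo luminescence read on a ViewLux, signals were set against vehicle wells as 100% and empty wells as 0%. The reported number is viability at the highest tested concentration relative to vehicle control.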

| SMILES | viability |
| --- | --- |
| CN[C@H]1[C@H](O[C@@H]2[C@H](O[C@@H]3[C@@H](O)[C@@H](O)[C@@H](NC(=N)N)[C@@H](O)[C@H]3NC(=N)N)O[C@H](C)[C@@]2(O)C=O)O[C@@H](CO)[C@@H](O)[C@H]1O | 114 |

Same assay, conditions: library / dose series: MIPE library, 11-point 1:3 dilution; top concentration 46.1 µM; 48 h

| SMILES | viability |
| --- | --- |
| OC[C@H]1O[C@@H](Oc2cc(O)cc(/C=C/c3ccc(O)cc3)c2)[C@H](O)[C@@H](O)[C@@H]1O | 128 |
| COc1ccc2[nH]cc(CCNC(C)=O)c2c1 | 106 |
| CNC(=O)c1ccccc1Sc1ccc2c(/C=C/c3ccccn3)n[nH]c2c1 | 104 |
| CC[C@H](C)[N]1C=C(C)C2=C1C=C(C=C2C(=O)NC\C3=C(C)\C=C(\C)NC3=O)C4=CC=C(N=C4)N5CCNCC5 | 141 |
| Cc1cc2c(F)c(Oc3ncnn4cc(OC[C@@H](C)O)c(C)c34)ccc2[nH]1 | 118 |
| Cc1csc(NC(=O)c2sc3nc4c(c(C(F)(F)F)c3c2N)CCC4)n1 | 94.1 |
| C[N+](C)(C)CC(=O)O.[Cl-] | 113 |
| CN(C)c1ccccc1CN1CCCN(Cc2ccccc2N(C)C)C1c1ccncc1 | 97.4 |
| Cc1cccc(/C=N/Nc2cc(N3CCOCC3)nc(OCCc3ccccn3)n2)c1 | 87.4 |
| COC[C@H]1OC(=O)C2=COC3=C2[C@@]1(C)\C4=C(C5CCC(=O)[C@@]5(C)C[C@H]4OC(C)=O)/C3=O (some centres undefined) | 88.9 |
| O=C(O)c1ccccc1C(=O)Nc1ccc(-c2ccccc2)cc1 | 111 |
| O=[N+]([O-])c1ccc(Nc2ccccc2-c2ccccc2)c2nonc12 | 106 |
| CC1=C(/C=C/C(C)=C/C=C/C(C)=C/C=C/C=C(C)/C=C/C=C(C)/C=C/C2=C(C)CCCC2(C)C)C(C)(C)CCC1 | 113 |
| CN(C)CC[C@H](CSc1ccccc1)Nc1ccc([S+](=O)([O-])NC(=O)c2ccc(N3CCN(Cc4ccccc4-c4ccc(Cl)cc4)CC3)cc2)cc1[N+](=O)[O-] | 114 |
| O=C(NCc1ccccc1)c1csc(Nc2ccncn2)n1 | 110 |
| C[C@H](c1ccc(F)cc1CCCC(=O)O)N(c1cc(F)ccc1F)[S+](=O)([O-])c1ccc(Cl)cc1 | 93.9 |
| O=C(O)CSCC(=O)NC1CCSC1=O (centres undefined) | 139 |
| CC1(CN2CCC(n3c(=O)[nH]c4ccccc43)CC2)OCc2ccccc2-n2cccc21 (centres undefined) | 82.8 |
| O=C(/C=C/c1ccc(/C=C/C(=O)Nc2ccc(C3=NCCN3)cc2)cc1)Nc1ccc(C2=NCCN2)cc1 | 117 |

| SMILES | viability |
| --- | --- |
| CN[C@@H](C)C(=O)N[C@H]1CCCC[C@H]2CC[C@@H](C(=O)N[C@@H](c3ccccc3)c3cn(CCCCc4ccc(CCCCn5cc([C@@H](NC(=O)[C@@H]6CC[C@@H]7CCCC[C@H](NC(=O)[C@H](C)NC)C(=O)N76)c6ccccc6)nn5)cc4)nn3)N2C1=O | 110 |
| COC(=O)C/1=C(C)/N/C(=C(\C1C2=CC(=CC=C2)[N+]([O-])=O)C(=O)OCCCN3CCC(CC3)(C4=CC=CC=C4)C5=CC=CC=C5)C (centres undefined) | 128 |
| CCC1=C2C=C(OC(=O)N3CCC(CC3)N4CCCCC4)C=CC2=NC\5=C1CN6C(=O)\C7=C(/C=C56)[C@@](O)(CC)C(=O)OC7 | 56.1 |
| [NH2][Pt]([NH2])([Cl])[Cl] | 128 |
| COc1ncnc(N[S+](=O)([O-])c2ccc(N)cc2)c1OC | 137 |
| CC(C(C)N1CC(=O)NC(=O)C1)N1CC(=O)NC(=O)C1 (centres undefined) | 109 |
| CCCCCCCCCCCCCCCCCCCCCCO | 103 |
| Clc1ccc(COC(Cn2ccnc2)c2ccc(Cl)cc2Cl)c(Cl)c1 (centres undefined) | 92.5 |
| CC(C)[C@H](N)C(=O)OCCOC[N]1C=NC2=C1\N=C(N)/NC2=O | 107 |
| COc1cc2c(cc1OC)[C@@H]1Cc3ccc(OC)c(OC)c3CN1CC2 | 115 |
| C[C@H]1O[C@H](O[C@H]2[C@H](O)[C@@H](O)[C@H](O[C@@H]2CO)O[C@H]3[C@H](O)[C@@H](O)C(O)O[C@@H]3CO)[C@H](O)[C@@H](O)[C@@H]1N[C@H]4\C=C(CO)/[C@@H](O)[C@H](O)[C@H]4O (some centres undefined) | 135 |
| Nc1cccc2c1C(=O)N(C1CCC(=O)NC1=O)C2=O (centres undefined) | 107 |
| Cl.Cl.Clc1ccc(Nc2nnc(Cc3ccncc3)c3ccccc23)cc1 | 101 |
| Clc1ccc(CCC(Cn2ccnc2)Sc2c(Cl)cccc2Cl)cc1 (centres undefined) | 97 |
| NC/1=N/C(=O)C2=C(N1)[N](C=N2)[C@@H]3C[C@H](O)[C@@H](CO)C3=C | 100 |
| C/C=C(/C)C(=O)O[C@H]1C(C)=C[C@]23C(=O)[C@@H](C=C(CO)[C@@H](O)[C@]12O)[C@H]1[C@@H](C[C@H]3C)C1(C)C | 106 |
| CC(C)c1ccc(Cn2ccc3c4c(N)nc(NC5CC5)nc4ccc32)cc1 | 106 |
| COc1cc2cc(c1Cl)N(C)C(=O)C[C@H](OC(=O)C(C)C)[C@]1(C)O[C@@H]1[C@H](C)[C@@H]1C[C@@](O)(NC(=O)O1)[C@H](OC)/C=C/C=C(\C)C2 | 122 |
| COC(=O)Nc1nc2ccc([S+]([O-])c3ccccc3)cc2[nH]1 (centres undefined) | 95.4 |
